Reference: PubChem BioAssay AID2060495 (Molecular Pharmacology Branch, DTP, NCI, 2025)

Tested on: 521955-158-R2-J5-PDC complex spheroid viability
Experiment: Anticancer human tumor 521955-158-R2-J5-PDC patient-derived pancreatic carcinoma cell line growth inhibition [GQUAD]
Settings: for IC50: curve of first compound; for viability, T/C: stronger effect = lower value; active means viability on the fitted dose curve at most 10% of control; inactive means the rest
Summary of the method: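 Viability of tumor cells grown as complex spheroids with endothelial and stromal cells, exposed to drug combinations. Top concentration at or near clinical Cmax (else 10 microM), diluted in half-log increments.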

[1] = second compound 0.0316 µM, first compound 0.0316 µM
[2] = second compound 0.0316 µM, first compound 0.1 µM
[3] = second compound 0.0316 µM, first compound 0.316 µM
[4] = second compound 0.0316 µM, first compound 1 µM
[5] = second compound 0.0316 µM, first compound 3.16 µM
[6] = second compound 0.0316 µM, first compound 10 µM
[7] = second compound 0.1 µM, first compound 0.0316 µM
[8] = second compound 0.1 µM, first compound 0.1 µM
[9] = second compound 0.1 µM, first compound 0.316 µM
[10] = second compound 0.1 µM, first compound 1 µM
[11] = second compound 0.1 µM, first compound 3.16 µM
[12] = second compound 0.1 µM, first compound 10 µM
[13] = second compound 0.316 µM, first compound 0.0316 µM
[14] = second compound 0.316 µM, first compound 0.1 µM
[15] = second compound 0.316 µM, first compound 0.316 µM
[16] = second compound 0.316 µM, first compound 1 µM
[17] = second compound 0.316 µM, first compound 3.16 µM
[18] = second compound 0.316 µM, first compound 10 µM
[19] = second compound 1 µM, first compound 0.0316 µM
[20] = second compound 1 µM, first compound 0.1 µM
[21] = second compound 1 µM, first compound 0.316 µM
[22] = second compound 1 µM, first compound 1 µM
[23] = second compound 1 µM, first compound 3.16 µM
[24] = second compound 1 µM, first compound 10 µM
[25] = second compound 3.16 µM, first compound 0.0316 µM
[26] = second compound 3.16 µM, first compound 0.1 µM
[27] = second compound 3.16 µM, first compound 0.316 µM
[28] = second compound 3.16 µM, first compound 1 µM
[29] = second compound 3.16 µM, first compound 3.16 µM
[30] = second compound 3.16 µM, first compound 10 µM
[31] = second compound 10 µM, first compound 0.0316 µM
[32] = second compound 10 µM, first compound 0.1 µM
[33] = second compound 10 µM, first compound 0.316 µM
[34] = second compound 10 µM, first compound 1 µM
[35] = second compound 10 µM, first compound 3.16 µM
[36] = second compound 10 µM, first compound 10 µM
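Further: spheroids exposed to agents for one week before reading.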
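Wherever viability, T/C is given: 100% = DMSO vehicle control viability.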

CC(=O)O[C@H]1C(=O)[C@@]2(C)[C@H]([C@H](OC(=O)c3ccccc3)[C@]3(O)C[C@H](OC(=O)[C@H](O)[C@@H](NC(=O)c4ccccc4)c4ccccc4)C(C)=C1C3(C)C)[C@]1(OC(C)=O)CO[C@@H]1C[C@@H]2O + Cc1cnc(CNC(=O)c2c(=O)c3ccc(N4CCCN(C)CC4)nc3n3c2sc2ccccc23)cn1
< 31.6 nM: IC50 (second compound 0.0316 µM) | IC50 (second compound 0.1 µM) | IC50 (second compound 0.316 µM) | IC50 (second compound 1 µM) | IC50 (second compound 3.16 µM) | IC50 (second compound 10 µM)
inactive: viability, T/C [1] 23.3% | viability, T/C [2] 14.8% | viability, T/C [3] 11.8% | viability, T/C [4] 13.7% | viability, T/C [5] 11.2% | viability, T/C [6] 12.1% | viability, T/C [7] 24.5% | viability, T/C [8] 15.2% | viability, T/C [9] 15.3% | viability, T/C [10] 10.4% | viability, T/C [11] 12% | viability, T/C [12] 14.6% | viability, T/C [13] 24.6% | viability, T/C [14] 16.7% | viability, T/C [15] 12.1% | viability, T/C [16] 10.6% | viability, T/C [17] 12% | viability, T/C [18] 12.1% | viability, T/C [19] 15.1% | viability, T/C [20] 11%
active: viability, T/C [21] 8.58% | viability, T/C [22] 9.85% | viability, T/C [23] 10.3% | viability, T/C [24] 8.46% | viability, T/C [25] 9.56% | viability, T/C [26] 3.21% | viability, T/C [27] 0.92% | viability, T/C [28] 0.43% | viability, T/C [29] 0.28% | viability, T/C [30] 3.89% | viability, T/C [31] 0.14% | viability, T/C [32] 2.35% | viability, T/C [33] 0.16% | viability, T/C [34] 0.27% | viability, T/C [35] 2.45% | viability, T/C [36] 0.15%

CCc1c2c(nc3ccc(O)cc13)-c1cc3c(c(=O)n1C2)COC(=O)[C@]3(O)CC + CN(C)c1ccc(Nc2c3ccc(NC(=O)CCN4CCCC4)cc3nc3cc(NC(=O)CCN4CCCC4)ccc23)cc1
3.03 nM: IC50 (second compound 0.1 µM)
inactive: viability, T/C (second compound 0.0316 µM, first compound 0.000999 µM) 74.6% | viability, T/C (second compound 0.0316 µM, first compound 0.00316 µM) 49.6% | viability, T/C (second compound 0.0316 µM, first compound 0.00999 µM) 32.4% | viability, T/C [1] 15.1% | viability, T/C (second compound 0.0316 µM, first compound 0.0999 µM) 11.6% | viability, T/C (second compound 0.1 µM, first compound 0.000999 µM) 80.2% | viability, T/C (second compound 0.1 µM, first compound 0.00316 µM) 46.8% | viability, T/C (second compound 0.1 µM, first compound 0.00999 µM) 31.7% | viability, T/C [7] 18% | viability, T/C (second compound 0.1 µM, first compound 0.0999 µM) 9.85% | viability, T/C (second compound 0.316 µM, first compound 0.000999 µM) 84.6% | viability, T/C (second compound 0.316 µM, first compound 0.00316 µM) 39.3% | viability, T/C (second compound 0.316 µM, first compound 0.00999 µM) 25.3% | viability, T/C [13] 12.8% | viability, T/C (second compound 1 µM, first compound 0.000999 µM) 89.1% | viability, T/C (second compound 1 µM, first compound 0.00316 µM) 33.5% | viability, T/C (second compound 1 µM, first compound 0.00999 µM) 25.4% | viability, T/C [19] 15.4% | viability, T/C (second compound 1 µM, first compound 0.0999 µM) 9.81% | viability, T/C (second compound 3.16 µM, first compound 0.000999 µM) 75.5% | viability, T/C (second compound 3.16 µM, first compound 0.00316 µM) 33.7% | viability, T/C (second compound 3.16 µM, first compound 0.00999 µM) 30.4% | viability, T/C [25] 17.9% | viability, T/C (second compound 3.16 µM, first compound 0.0999 µM) 7.36% | viability, T/C (second compound 10 µM, first compound 0.000999 µM) 56.9% | viability, T/C (second compound 10 µM, first compound 0.00316 µM) 37.8% | viability, T/C (second compound 10 µM, first compound 0.00999 µM) 25% | viability, T/C [31] 11.8%
3.29 nM: IC50 (second compound 0.0316 µM)
active: viability, T/C [3] 9.29% | viability, T/C [9] 7.27% | viability, T/C (second compound 0.316 µM, first compound 0.0999 µM) 11.6% | viability, T/C [15] 4.59% | viability, T/C [21] 6.13% | viability, T/C [27] 8.33% | viability, T/C (second compound 10 µM, first compound 0.0999 µM) 5.13% | viability, T/C [33] 6.11%
2.41 nM: IC50 (second compound 1 µM)
2.54 nM: IC50 (second compound 0.316 µM)
1.54 nM: IC50 (second compound 10 µM)
2.28 nM: IC50 (second compound 3.16 µM)

O=C(c1cc(Cc2n[nH]c(=O)c3ccccc23)ccc1F)N1CCN(C(=O)C2CC2)CC1 + Cc1[nH]c2ccc(F)cc2c1-c1nc2c3cccnc3c3ncccc3c2[nH]1
inactive: viability, T/C [1] 84.3% | viability, T/C [2] 88.5% | viability, T/C [3] 89.8% | viability, T/C [4] 80.4% | viability, T/C [5] 93% | viability, T/C [6] 74.5% | viability, T/C [7] 83.4% | viability, T/C [8] 80% | viability, T/C [9] 82% | viability, T/C [10] 83.2% | viability, T/C [11] 87.9% | viability, T/C [12] 96.3% | viability, T/C [13] 80.9% | viability, T/C [14] 76.9% | viability, T/C [15] 102% | viability, T/C [16] 102% | viability, T/C [17] 88.3% | viability, T/C [18] 91% | viability, T/C [19] 92.4% | viability, T/C [20] 93% | viability, T/C [21] 99.4% | viability, T/C [22] 98.8% | viability, T/C [23] 104% | viability, T/C [24] 92.7% | viability, T/C [25] 91.8% | viability, T/C [26] 104% | viability, T/C [27] 78.7% | viability, T/C [28] 98.3% | viability, T/C [29] 98.7% | viability, T/C [30] 84.5% | viability, T/C [31] 86.8% | viability, T/C [32] 92.7% | viability, T/C [33] 88.2% | viability, T/C [34] 102% | viability, T/C [35] 92.5% | viability, T/C [36] 82.6%
> 10000 nM: IC50 (second compound 0.0316 µM) | IC50 (second compound 0.1 µM) | IC50 (second compound 0.316 µM) | IC50 (second compound 1 µM) | IC50 (second compound 3.16 µM) | IC50 (second compound 10 µM)

COc1ncnc(C2CC2)c1-c1ncc2cnn(Cc3ccc(-c4nc(C(F)(F)F)cn4C(C)C)cc3)c2n1 + Cc1[nH]c2ccc(F)cc2c1-c1nc2c3cccnc3c3ncccc3c2[nH]1
> 10000 nM: IC50 (second compound 0.0316 µM) | IC50 (second compound 0.1 µM) | IC50 (second compound 0.316 µM) | IC50 (second compound 1 µM) | IC50 (second compound 3.16 µM) | IC50 (second compound 10 µM)
inactive: viability, T/C [1] 94% | viability, T/C [2] 103% | viability, T/C [3] 107% | viability, T/C [4] 111% | viability, T/C [5] 100% | viability, T/C [6] 143% | viability, T/C [7] 101% | viability, T/C [8] 99.2% | viability, T/C [9] 105% | viability, T/C [10] 126% | viability, T/C [11] 104% | viability, T/C [12] 121% | viability, T/C [13] 109% | viability, T/C [14] 97.5% | viability, T/C [15] 125% | viability, T/C [16] 112% | viability, T/C [17] 116% | viability, T/C [18] 126% | viability, T/C [19] 97.8% | viability, T/C [20] 91.9% | viability, T/C [21] 102% | viability, T/C [22] 112% | viability, T/C [23] 133% | viability, T/C [24] 119% | viability, T/C [25] 87.7% | viability, T/C [26] 90.1% | viability, T/C [27] 98.1% | viability, T/C [28] 111% | viability, T/C [29] 125% | viability, T/C [30] 116% | viability, T/C [31] 81.8% | viability, T/C [32] 68.6% | viability, T/C [33] 101% | viability, T/C [34] 102% | viability, T/C [35] 109% | viability, T/C [36] 116%
